This note sets out measurements from PubChem BioAssay AID330 (DTP/NCI, 2004).

The test deals with P388 leukemia ip, CD2F1 mice, survival T/C. Put plainly: NCI In Vivo Anticancer Drug Screen. Data for tumor model P388 Leukemia (intraperitoneal) in CD2F1 (CDF1) mice. Particulars: endpoint: median survival time, higher = longer survival. A digest of the protocol:
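Mice carrying the transplanted tumor received test compound or vehicle. Survival was recorded in each group, and the value is the treated-group measurement divided by that of the vehicle-treated control group.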

Setting [1] is: dose: 60.0 mg/kg/injection, schedule: Q01DX005 (ip), vehicle: saline with Tween-80.
Where [2] appears, read: dose: 120.0 mg/kg/injection, schedule: Q01DX005 (ip), vehicle: saline with Tween-80.
The mark [3] stands for this setting: dose: 50.0 mg/kg/injection, schedule: Q01DX005 (ip), vehicle: saline with Tween-80.
[4] abbreviates: dose: 100.0 mg/kg/injection, schedule: Q01DX005 (ip), vehicle: saline with Tween-80.
Setting [5] is: dose: 200.0 mg/kg/injection, schedule: Q01DX005 (ip), vehicle: saline with Tween-80.
Where [6] appears, read: dose: 60.0 mg/kg/injection, schedule: Q01DX005 (ip), vehicle: Klucel (hydroxypropylcellulose) (HPC).
Where [7] appears, read: dose: 120.0 mg/kg/injection, schedule: Q01DX005 (ip), vehicle: Klucel (hydroxypropylcellulose) (HPC).
Setting [8] is: dose: 240.0 mg/kg/injection, schedule: Q01DX005 (ip), vehicle: Klucel (hydroxypropylcellulose) (HPC).
The mark [9] stands for this setting: dose: 50.0 mg/kg/injection, schedule: Q01DX005 (ip), vehicle: Klucel (hydroxypropylcellulose) (HPC).
Setting [10] is: dose: 100.0 mg/kg/injection, schedule: Q01DX005 (ip), vehicle: Klucel (hydroxypropylcellulose) (HPC).
[11] abbreviates: dose: 200.0 mg/kg/injection, schedule: Q01DX005 (ip), vehicle: Klucel (hydroxypropylcellulose) (HPC).
[12] abbreviates: dose: 100.0 mg/kg/injection, schedule: Q01DX009 (ip), vehicle: saline with Tween-80.
Where [13] appears, read: dose: 200.0 mg/kg/injection, schedule: Q01DX009 (ip), vehicle: saline with Tween-80.
Where [14] appears, read: dose: 50.0 mg/kg/injection, schedule: Q01DX009 (ip), vehicle: saline with Tween-80.

“And” between values parts separate entries of the source, which are not always exact repeats. Identical values can stand only once. Inconclusive results and toxic doses are left out.

In the case of `C[N+]12CCC34C5=CC(=O)C(=O)C=C5[N+]5(C)C(=O)CC6OCC=C(C1)C(CC32)C6C45` (stereo not drawn), the T/C is 102 % of control (dose: 7.5 mg/kg/injection, schedule: Q01DX005 (ip), vehicle: saline); 104 % of control (dose: 15.0 mg/kg/injection, schedule: Q01DX005 (ip), vehicle: saline); 97 % of control (dose: 30.0 mg/kg/injection, schedule: Q01DX005 (ip), vehicle: saline).
Regarding `CCn1c(Cl)c(/C=N/NC(N)=S)c2cc(/C=N/NC(N)=S)ccc21`, the T/C (dose: 100.0 mg/kg/injection, schedule: Q01DX001 (ip), vehicle: Klucel (hydroxypropylcellulose) (HPC)) is 98 % of control; the T/C (dose: 200.0 mg/kg/injection, schedule: Q01DX001 (ip), vehicle: Klucel (hydroxypropylcellulose) (HPC)) is 97 % of control; the T/C (dose: 400.0 mg/kg/injection, schedule: Q01DX001 (ip), vehicle: Klucel (hydroxypropylcellulose) (HPC)) was 89 % of control.
`C=C(CO)CC(CC(=C)CCS(=O)(=O)c1ccccc1)S(=O)(=O)c1ccccc1` (stereo not drawn): the T/C is, setting by setting: under setting [1], 94 % of control; under setting [2], 106 % of control; (dose: 240.0 mg/kg/injection, schedule: Q01DX005 (ip), vehicle: saline with Tween-80) 100 % of control.
For the compound `NC(=O)CCSC(N)=O`, the T/C runs as follows: under setting [3], 102 % of control; under setting [4], 100 % of control; under setting [5], 102 % of control.
Regarding `O=C1C2=C(Nc3ccccc3N2)OC1c1ccc2c(c1)OCO2` (stereo not drawn), the T/C is 100 % of control under setting [6], 86 % of control under setting [7] and 89 % of control under setting [8].
In the case of `O=c1oc2c(Cl)cc(Cl)cc2cc1-c1nc2ccccc2[nH]1`, the T/C runs as follows: (dose: 25.0 mg/kg/injection, schedule: Q01DX005 (ip), vehicle: Klucel (hydroxypropylcellulose) (HPC)) 92 % of control; under setting [9], 92 % of control; under setting [10], 92 % of control; under setting [11], 92 % of control.
Regarding `CCN1C(C)N1P(=S)(OC1CC(C)(C)N(O)C(C)(C)C1)OC1CC(C)(C)N(O)C(C)(C)C1` (stereo not drawn), the T/C under setting [9] is 93 % of control and the T/C under setting [10] was 86 % of control.
Take `CCCCCCCCCCSCC`: the T/C was 95 % of control (dose: 100.0 mg/kg/injection, schedule: Q01DX009 (ip), vehicle: saline); 100 % of control (dose: 100.0 mg/kg/injection, schedule: Q04DX003 (ip), vehicle: saline); 100 % of control (dose: 200.0 mg/kg/injection, schedule: Q01DX009 (ip), vehicle: saline); 91 % of control (dose: 200.0 mg/kg/injection, schedule: Q04DX003 (ip), vehicle: saline); 104 % of control (dose: 400.0 mg/kg/injection, schedule: Q01DX009 (ip), vehicle: saline); 100 % of control (dose: 400.0 mg/kg/injection, schedule: Q04DX003 (ip), vehicle: saline).
For the compound `O=C1c2ccccc2C(=O)N1/N=C/c1ccc(O)cc1`, the T/C reads like this: under setting [9], 101 % of control; under setting [10], 99 % of control; under setting [11], 100 % of control.
With `C=Cc1ccc(NC(=O)CC2SC(=O)NC2=O)cc1` (stereo not drawn), the T/C reads like this: under setting [3], 103 % of control; under setting [4], 97 % of control; under setting [5], 103 % of control.
Take `CC(C)CC(NC(=O)OCCc1ccccn1)C(=O)NC(Cc1ccccc1)C(=O)OC(C)(C)C` (stereo not drawn): the T/C was 101 % of control under setting [6], 95 % of control under setting [7] and 94 % of control under setting [8].
As to `COc1cc(Br)c(CC(NC=O)c2ccc3c(c2)OCO3)cc1OC` (stereo not drawn), the T/C runs as follows: (dose: 15.0 mg/kg/injection, schedule: Q01DX005 (ip), vehicle: saline with Tween-80) 107 % of control; (dose: 30.0 mg/kg/injection, schedule: Q01DX005 (ip), vehicle: saline with Tween-80) 104 % of control; under setting [1], 89 % of control and 94 % of control.
On to `N#Cc1ccc(OC(=O)Nc2ccccc2C(F)(F)F)cc1`, for which the T/C was 86 % of control under setting [1] and 87 % of control under setting [2].
For `CC(=O)OC1C(C(O)CO)OC2OC(C)(C)OC21` (stereo not drawn), the T/C is 100 % of control (dose: 60.0 mg/kg/injection, schedule: Q01DX005 (ip), vehicle: saline); 105 % of control (dose: 120.0 mg/kg/injection, schedule: Q01DX005 (ip), vehicle: saline); 96 % of control (dose: 240.0 mg/kg/injection, schedule: Q01DX005 (ip), vehicle: saline).
As to `O=P(Oc1ccc(OP(=O)(N2CC2)N2CC2)cc1)(N1CC1)N1CC1`, the T/C under setting [12] is 154 % of control; the T/C under setting [13] is 181 % of control; the T/C (dose: 200.0 mg/kg/injection, schedule: Q04DX003 (ip), vehicle: saline with Tween-80) is 154 % of control; the T/C (dose: 264.0 mg/kg/injection, schedule: Q04DX003 (ip), vehicle: saline with Tween-80) is 166 % of control; the T/C (dose: 400.0 mg/kg/injection, schedule: Q04DX003 (ip), vehicle: saline with Tween-80) was 166 % of control.
For the compound `Nc1ccc(-c2ccc(N=C(/C=N/O)NO)cc2)cc1`, the T/C under setting [9] was 102 % of control, the T/C under setting [10] is 100 % of control and the T/C under setting [11] was 94 % of control.
`Oc1c(CN2CCCCC2)ccc2cccnc12`: the T/C was 107 % of control and 92 % of control (dose: 0.78 mg/kg/injection, schedule: Q01DX009 (ip), vehicle: saline with Tween-80); 99 % of control and 97 % of control (dose: 1.56 mg/kg/injection, schedule: Q01DX009 (ip), vehicle: saline with Tween-80); 107 % of control (dose: 3.12 mg/kg/injection, schedule: Q01DX009 (ip), vehicle: saline with Tween-80); 99 % of control and 110 % of control and 122 % of control (dose: 6.25 mg/kg/injection, schedule: Q01DX009 (ip), vehicle: saline with Tween-80); 99 % of control and 106 % of control and 108 % of control (dose: 12.5 mg/kg/injection, schedule: Q01DX009 (ip), vehicle: saline with Tween-80); 113 % of control (dose: 25.0 mg/kg/injection, schedule: Q01DX009 (ip), vehicle: saline with Tween-80). Also, the T/C under setting [14] is 113 % of control.
On to `Nc1ccc(C(=O)CC(O)(C(F)(F)F)C(F)(F)F)cc1`, for which the T/C is 95 % of control (dose: 75.0 mg/kg/injection, schedule: Q04DX003 (ip), vehicle: saline with Tween-80); 95 % of control (dose: 150.0 mg/kg/injection, schedule: Q04DX003 (ip), vehicle: saline with Tween-80); 100 % of control (dose: 300.0 mg/kg/injection, schedule: Q04DX003 (ip), vehicle: saline with Tween-80).
As to `O=C(Nc1cc(C(F)(F)F)ccc1Cl)n1nc(Cl)c2ccc([N+](=O)[O-])cc21`, the T/C is 102 % of control under setting [14], 104 % of control under setting [12] and 95 % of control under setting [13].
Turning to `CC1=C(O)C(=O)C(C)=C(O)C1=O`, the T/C (dose: 12.5 mg/kg/injection, schedule: Q01DX001 (ip), vehicle: Klucel (hydroxypropylcellulose) (HPC)) is 112 % of control; the T/C (dose: 25.0 mg/kg/injection, schedule: Q01DX001 (ip), vehicle: Klucel (hydroxypropylcellulose) (HPC)) is 112 % of control; the T/C (dose: 50.0 mg/kg/injection, schedule: Q01DX001 (ip), vehicle: Klucel (hydroxypropylcellulose) (HPC)) was 111 % of control.
